The NIST ThermoML archive (doi:10.1021/je500314x)
Numbers after ± are expanded uncertainties.

Key:
[1] = gamma densitometer
[2] = wn = mass fraction of the nth substance listed; conditions: Liquid, gamma densitometer

N#N [nitrogen]
mass density [kg/m3], [1], Gas
Conditions | 293.2 K | 473.2 K
100 kPa | 1.15 | 0.68
600 kPa | 7.36 ± 1.5 | 3.79 ± 1.5
1000 kPa | – | 8 ± 1.5
1100 kPa | 11.22 ± 1.5 | –
1600 kPa | 17.77 ± 1.5 | 11.8 ± 1.5
2100 kPa | 23.64 ± 1.5 | 14.69 ± 1.5
2600 kPa | 27.88 ± 1.5 | –
3100 kPa | 33.96 ± 1.5 | 21.05 ± 1.5
3600 kPa | 40.54 ± 1.6 | –
4000 kPa | – | 27.65 ± 1.6
4100 kPa | 46.43 ± 1.6 | –
4600 kPa | 53.49 ± 1.6 | –
5100 kPa | 58.28 ± 1.6 | –
5600 kPa | 62.2 ± 1.5 | –
6000 kPa | 69.11 ± 1.5 | –

C1CCCCC1 [cyclohexane]
[1], 5000 kPa, Fluid (supercritical or subcritical phases)
Conditions | mass density [kg/m3]
287 K | 788.3 ± 5.7
305.9 K | 763.7 ± 4.5
324.9 K | 752.1 ± 3.7
351 K | 731.8 ± 4.4
375 K | 704.3 ± 4.7
394.8 K | 686.7 ± 4.3
416.6 K | 666.5 ± 4.9
431.9 K | 646.2 ± 5.7
452.4 K | 620.2 ± 5.2
475.1 K | 595.5 ± 5.6
488.4 K | 573.5 ± 7.1
504.4 K | 546.3 ± 7.5
513.9 K | 527.5 ± 8.2
522.6 K | 510.3 ± 9.3
531.9 K | 487 ± 11
543 K | 454.5 ± 12
553.2 K | 426.2 ± 19
561.7 K | 365.6 ± 36
572.1 K | 259.5 ± 32
584.2 K | 187 ± 19
592.5 K | 167 ± 8
603.6 K | 149.3 ± 5.6
618.8 K | 133 ± 4.6
635 K | 118.3 ± 3.5
654.2 K | 109.8 ± 3.3
672.3 K | 96.5 ± 3.2
687.5 K | 92 ± 2.5
698.5 K | 89.9 ± 2.4

O [water]
[1], Liquid
Conditions | mass density [kg/m3]
286 K, 3000 kPa | 1000.7 ± 3.1
288.3 K, 5000 kPa | 1001.4 ± 3.3
303.5 K, 5000 kPa | 996.5 ± 3.2
305 K, 3000 kPa | 996.2 ± 3.3
322.6 K, 3000 kPa | 988.4 ± 3.6
324.8 K, 5000 kPa | 990.7 ± 3.3
343.4 K, 3000 kPa | 977.7 ± 3.8
344.3 K, 5000 kPa | 981.8 ± 4.1
356.4 K, 3000 kPa | 969 ± 3.6
358.6 K, 5000 kPa | 966.8 ± 4.6
372.3 K, 5000 kPa | 957.1 ± 4.3
374.7 K, 3000 kPa | 962.3 ± 4.1
384 K, 5000 kPa | 947 ± 4.6
391.2 K, 3000 kPa | 945 ± 4.7
393.6 K, 5000 kPa | 938.5 ± 4.2
403.8 K, 5000 kPa | 932.6 ± 4.3
412.5 K, 3000 kPa | 927.7 ± 4.3
414.2 K, 5000 kPa | 923 ± 4.7
423.2 K, 5000 kPa | 915.2 ± 5.2
423.8 K, 3000 kPa | 920.4 ± 4.9
432.8 K, 5000 kPa | 903.3 ± 5.3
442.5 K, 3000 kPa | 899.6 ± 5.1
442.7 K, 5000 kPa | 893.8 ± 4.9
452.6 K, 5000 kPa | 884.3 ± 4.6
462 K, 5000 kPa | 876.7 ± 4.7
462.5 K, 3000 kPa | 880.9 ± 4.7
471.4 K, 3000 kPa | 873.1 ± 5.2
474.3 K, 5000 kPa | 864.5 ± 5
483.9 K, 3000 kPa | 858.3 ± 6.6
484.1 K, 5000 kPa | 854.6 ± 6.5
491.4 K, 5000 kPa | 839.5 ± 7
492.5 K, 3000 kPa | 841.7 ± 8
500.4 K, 3000 kPa | 827.9 ± 7.6
502.5 K, 5000 kPa | 824.9 ± 6
511 K, 5000 kPa | 814.1 ± 5.9

CCCCCCCC [octane] + CCCCCCC
[2]
Conditions | mass density [kg/m3]
303.1 K, 5100 kPa, w2 = 0.5 | 686.2 ± 3.9
313.3 K, 5100 kPa, w2 = 0.5 | 678.1 ± 3.9
323 K, 5100 kPa, w2 = 0.5 | 670 ± 3.8
332.7 K, 5100 kPa, w2 = 0.5 | 663.3 ± 3.7
344.1 K, 5100 kPa, w2 = 0.5 | 655.9 ± 3.9
353.2 K, 5100 kPa, w2 = 0.5 | 645.5 ± 3.9
362.9 K, 5100 kPa, w2 = 0.5 | 638.9 ± 3.8
372.3 K, 5100 kPa, w2 = 0.5 | 632.3 ± 3.8
374.7 K, 3300 kPa, w2 = 0.255 | 633.2 ± 4.2
374.8 K, 8000 kPa, w2 = 0.255 | 640.4 ± 4.2
380.5 K, 3200 kPa, w2 = 0.51 | 619.9 ± 4.2
380.5 K, 8700 kPa, w2 = 0.51 | 631.1 ± 4.2
383.2 K, 5100 kPa, w2 = 0.5 | 623.2 ± 3.9
393 K, 5100 kPa, w2 = 0.5 | 611.8 ± 3.9
405.1 K, 5100 kPa, w2 = 0.5 | 604.3 ± 4
413.8 K, 5100 kPa, w2 = 0.5 | 592.5 ± 4.7
424.2 K, 5100 kPa, w2 = 0.5 | 584.4 ± 4.5
424.4 K, 4900 kPa, w2 = 0.51 | 582.4 ± 4.8
424.5 K, 7200 kPa, w2 = 0.51 | 588 ± 4.2
429.4 K, 3500 kPa, w2 = 0.255 | 584 ± 4.2
429.4 K, 8300 kPa, w2 = 0.255 | 592.3 ± 4.4
433.2 K, 5100 kPa, w2 = 0.5 | 573.5 ± 5.5
443 K, 5100 kPa, w2 = 0.5 | 560.6 ± 4.4
453.1 K, 5100 kPa, w2 = 0.5 | 554.4 ± 3.8
464.5 K, 5100 kPa, w2 = 0.5 | 545.2 ± 4.8
466.6 K, 3200 kPa, w2 = 0.51 | 535.5 ± 4.2
466.7 K, 8600 kPa, w2 = 0.51 | 554.2 ± 4.7
473.6 K, 5100 kPa, w2 = 0.5 | 531.6 ± 4.8
475.8 K, 4400 kPa, w2 = 0.255 | 538.4 ± 5.8
475.9 K, 8500 kPa, w2 = 0.255 | 554.4 ± 4.4
484.2 K, 5100 kPa, w2 = 0.5 | 524 ± 5.3
492.8 K, 5100 kPa, w2 = 0.5 | 508 ± 6.3
503.1 K, 5100 kPa, w2 = 0.5 | 495.9 ± 5.3
513.2 K, 5100 kPa, w2 = 0.5 | 483.6 ± 5.4
518 K, 4900 kPa, w2 = 0.51 | 479.1 ± 5.4
518 K, 7500 kPa, w2 = 0.51 | 494.8 ± 4.6
522.4 K, 5100 kPa, w2 = 0.5 | 470.1 ± 7.2
525.5 K, 4700 kPa, w2 = 0.255 | 473.6 ± 5.8
525.5 K, 7300 kPa, w2 = 0.255 | 493.5 ± 4.9
533 K, 5100 kPa, w2 = 0.5 | 451.2 ± 6.6
543.3 K, 5100 kPa, w2 = 0.5 | 437.7 ± 7.5
549.3 K, 5400 kPa, w2 = 0.51 | 427.9 ± 6.9
549.4 K, 8700 kPa, w2 = 0.51 | 461.2 ± 5.5
553 K, 5100 kPa, w2 = 0.5 | 415.1 ± 8.9
557.2 K, 5300 kPa, w2 = 0.255 | 427.1 ± 6.3
557.2 K, 8200 kPa, w2 = 0.255 | 460.9 ± 4.9
563.5 K, 5100 kPa, w2 = 0.5 | 394 ± 7.9
575.1 K, 5100 kPa, w2 = 0.5 | 372.9 ± 9.2
583.8 K, 5100 kPa, w2 = 0.5 | 348.2 ± 14
591.2 K, 5100 kPa, w2 = 0.5 | 319 ± 16
